The values that follow come from ChEMBL document CHEMBL1149784, “Discovery of a new anilino-3H-pyrrolo[3,2-f]quinoline derivative as potential anti-cancer agent” (Eur J Med Chem, 2008).

Calls of active or inactive are those of the source. No cut-off for these calls is given here.

Experiment [1] relates to OVCAR-3. The experiment can be described thus: Cell cycle arrest in human OVCAR-3 cells assessed as accumulation at S phase at 1 uM by flow cytometry. It is filed as functional.
The subject of experiment [2] is OVCAR-3. The experiment in a line: Cell cycle arrest in human OVCAR-3 cells assessed as accumulation at subG0 phase at 1 uM by flow cytometry. It is filed as functional.
In experiment [3] the test system is OVCAR-3. The experiment can be described thus: Cell cycle arrest in human OVCAR-3 cells assessed as accumulation at G2/M phase at 1 uM by flow cytometry. It is filed as functional.
The subject of experiment [4] is OVCAR-3. The experiment in a line: Cell cycle arrest in human OVCAR-3 cells assessed as accumulation at G0/G1 phase at 1 uM by flow cytometry. It is filed as functional.
Experiment [5] relates to OVCAR-3. The experiment can be described thus: Cell cycle arrest in human OVCAR-3 cells assessed as accumulation at G2/M phase at 16 uM by flow cytometry. It is filed as functional.
In experiment [6] the test system is OVCAR-3. The experiment can be described thus: Cell cycle arrest in human OVCAR-3 cells assessed as accumulation at subG0 phase at 16 uM by flow cytometry. It is filed as functional.
Experiment [7] concerns OVCAR-3. The experiment can be described thus: Cell cycle arrest in human OVCAR-3 cells assessed as accumulation at S phase at 16 uM by flow cytometry. It is filed as functional.
For experiment [8], the system named is OVCAR-3. The experiment can be described thus: Cell cycle arrest in human OVCAR-3 cells assessed as accumulation at G0/G1 phase at 16 uM by flow cytometry. It is filed as functional.
Experiment [9] concerns OVCAR-3. The experiment can be described thus: Cell cycle arrest in human OVCAR-3 cells assessed as accumulation at G0/G1 phase at 10 uM by flow cytometry. It is filed as functional.
Experiment [10] can be described thus: Growth inhibition of human JR8 cells after 72 hrs by trypan blue assay. It is filed as functional, cell-based. Particulars: JR8, 72 h.
Experiment [11] has as its system OVCAR-3. The experiment can be described thus: Cell cycle arrest in human OVCAR-3 cells assessed as accumulation at S phase at 10 uM by flow cytometry. It is filed as functional.
For experiment [12], the system named is OVCAR-3. The experiment in a line: Cell cycle arrest in human OVCAR-3 cells assessed as accumulation at G0/G1 phase at 5 uM by flow cytometry. It is filed as functional.
In experiment [13] the test system is OVCAR-3. The experiment in a line: Cell cycle arrest in human OVCAR-3 cells assessed as accumulation at subG0 phase at 10 uM by flow cytometry. It is filed as functional.
Experiment [14] addresses DNA topoisomerase 2-alpha (Homo sapiens) (UniProt P11388). The experiment can be described thus: Inhibition of human recombinant topoisomerase 2 assessed as relaxation of supercoiled pBR322 DNA.
Experiment [15] concerns OVCAR-3. The experiment in a line: Cell cycle arrest in human OVCAR-3 cells assessed as accumulation at G2/M phase at 10 uM by flow cytometry. It is filed as functional.
Experiment [16] deals with OVCAR-3. The experiment in a line: Cell cycle arrest in human OVCAR-3 cells assessed as accumulation at G2/M phase at 5 uM by flow cytometry. It is filed as functional.
Experiment [17] relates to OVCAR-3. The experiment can be described thus: Cell cycle arrest in human OVCAR-3 cells assessed as accumulation at subG0 phase at 5 uM by flow cytometry. It is filed as functional.
In another experiment the test system is HeLa. The experiment in a line: Growth inhibition of human HeLa cells after 72 hrs by trypan blue assay. It is filed as functional, cell-based.
The next experiment relates to Salmonidae. The experiment can be described thus: Binding affinity to Salmon testes DNA assessed as drug-DNA complex formation by linear flow dichroism method.
A further experiment concerns HL-60. The experiment in a line: Growth inhibition of human HL60 cells after 72 hrs by trypan blue assay. It is filed as functional, cell-based. As to conditions: HL-60, 72 h.
The subject of experiment [18] is OVCAR-3. The experiment in a line: Cell cycle arrest in human OVCAR-3 cells assessed as accumulation at S phase at 5 uM by flow cytometry. It is filed as functional.
Experiment [19] relates to OVCAR-3. The experiment in a line: Growth inhibition of human OVCAR-3 cells after 72 hrs by trypan blue assay. It is filed as functional, cell-based. As to conditions: OVCAR-3, 72 h.

Sequence of DNA topoisomerase 2-alpha (Homo sapiens) (P11388 whole entry): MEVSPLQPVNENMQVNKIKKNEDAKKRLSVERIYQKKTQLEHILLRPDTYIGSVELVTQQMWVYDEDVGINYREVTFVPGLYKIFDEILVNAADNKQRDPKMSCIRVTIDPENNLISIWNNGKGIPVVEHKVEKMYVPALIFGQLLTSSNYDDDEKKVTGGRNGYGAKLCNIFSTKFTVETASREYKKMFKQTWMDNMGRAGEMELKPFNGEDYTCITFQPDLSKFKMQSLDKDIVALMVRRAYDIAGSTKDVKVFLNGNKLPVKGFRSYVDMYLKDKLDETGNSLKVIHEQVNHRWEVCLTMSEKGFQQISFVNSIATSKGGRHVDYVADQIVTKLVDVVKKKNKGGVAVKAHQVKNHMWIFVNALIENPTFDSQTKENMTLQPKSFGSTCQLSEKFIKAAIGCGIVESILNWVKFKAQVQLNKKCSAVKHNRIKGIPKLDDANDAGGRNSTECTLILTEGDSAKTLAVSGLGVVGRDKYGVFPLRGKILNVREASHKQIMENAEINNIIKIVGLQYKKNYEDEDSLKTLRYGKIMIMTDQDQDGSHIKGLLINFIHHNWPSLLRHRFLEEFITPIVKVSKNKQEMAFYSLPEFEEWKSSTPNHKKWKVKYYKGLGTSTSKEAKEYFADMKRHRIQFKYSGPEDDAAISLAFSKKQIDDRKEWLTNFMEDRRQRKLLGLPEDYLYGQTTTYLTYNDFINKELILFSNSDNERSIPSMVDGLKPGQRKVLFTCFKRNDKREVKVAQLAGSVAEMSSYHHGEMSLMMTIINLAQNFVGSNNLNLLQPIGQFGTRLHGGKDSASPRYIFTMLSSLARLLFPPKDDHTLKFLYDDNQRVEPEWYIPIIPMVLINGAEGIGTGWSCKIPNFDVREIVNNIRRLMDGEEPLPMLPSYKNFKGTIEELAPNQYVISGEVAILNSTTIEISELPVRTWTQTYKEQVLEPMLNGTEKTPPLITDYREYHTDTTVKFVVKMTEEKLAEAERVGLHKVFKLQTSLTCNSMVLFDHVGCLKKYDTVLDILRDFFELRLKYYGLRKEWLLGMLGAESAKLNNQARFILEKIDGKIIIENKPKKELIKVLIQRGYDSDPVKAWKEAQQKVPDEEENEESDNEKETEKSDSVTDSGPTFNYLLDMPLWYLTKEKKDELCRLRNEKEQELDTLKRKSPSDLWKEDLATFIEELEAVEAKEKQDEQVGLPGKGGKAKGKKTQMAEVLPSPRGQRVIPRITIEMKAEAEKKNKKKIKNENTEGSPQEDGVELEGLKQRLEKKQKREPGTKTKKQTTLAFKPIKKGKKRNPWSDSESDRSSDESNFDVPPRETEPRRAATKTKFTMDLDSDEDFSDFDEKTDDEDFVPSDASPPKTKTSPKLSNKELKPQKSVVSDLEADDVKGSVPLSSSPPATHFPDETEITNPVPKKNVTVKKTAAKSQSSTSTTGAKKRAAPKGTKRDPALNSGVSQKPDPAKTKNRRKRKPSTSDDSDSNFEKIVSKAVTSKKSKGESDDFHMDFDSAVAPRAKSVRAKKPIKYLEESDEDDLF

Regarding `CC[C@]1(O)C[C@H]2CN(CCc3c([nH]c4ccccc34)[C@@](C(=O)OC)(c3cc4c(cc3OC)N(C=O)[C@H]3[C@@](O)(C(=O)OC)[C@H](OC(C)=O)[C@]5(CC)C=CCN6CC[C@]43[C@@H]65)C2)C1` [VINCRISTINE], the Activity with OVCAR-3 [1] came out at 7.9%; with OVCAR-3 [2] it was 0.5%; in the experiment with OVCAR-3 [3], 45.2%; in the experiment with OVCAR-3 [4], 46.8%.

Turning to `COc1cc(NS(C)(=O)=O)ccc1Nc1c2ccccc2nc2ccccc12` [AMSACRINE], the Activity with OVCAR-3 [5] is on record as 41.3%; in the experiment on OVCAR-3 [6], 1.8%; with OVCAR-3 [7], 12.7%; in the experiment with OVCAR-3 [8], 44.7%.

Consider `CC(=O)c1ccc(Nc2ccnc3ccc4[nH]ccc4c23)cc1.Cl`, for which the Activity in the experiment with OVCAR-3 [9] worked out at 24.5%; in the experiment on OVCAR-3 [1], 9.4%; in the experiment on OVCAR-3 [11], 11.6%; in the experiment on OVCAR-3 [12], 24.7%; with OVCAR-3 [13], 0.5%; in the experiment on OVCAR-3 [2] it was 7.6%. In addition, the Activity entry is “Dose-dependent effect” in experiment [14]; 63.7% with OVCAR-3 [15]; 57.8% with OVCAR-3 [16]; 4.3% with OVCAR-3 [17]; 31.4% in the experiment with OVCAR-3 [3]; 13.6% in the experiment on OVCAR-3 [18]. Also, in the experiment on OVCAR-3 [4], the Activity came to 51.9%. Further, the half-inhibitory concentration (IC50) in experiment [10] was 590 nM; in the experiment on HeLa, 3400 nM; in the experiment with HL-60, 500 nM; in the experiment on OVCAR-3 [19], 530 nM. For the same compound, the result in the experiment on Salmonidae was Active.
